Data as given in patent US20230146455A1, “TREATMENT OF INFLAMMATORY DISEASES WITH PEPTIDES AND PHARMACEUTICAL COMPOSITIONS” (Yuyu Pharma, Inc., priority 2020, published 2023).
Values joined by “and” are separate entries in the source; they are usually repeats but may differ in a detail not shown here. Equal entries are not always repeated. Where a SMILES comes first, the peptide text is derived from it. [ ]: non-standard residue; d: D form. Hyp = O=C(O)[C@@H]1C[C@@H](O)CN1

Test system: IL-10
Assay: Example 8 main study Luminex, LPS hPBMCs: IL-10
Assay type: cell-based, human
Conditions: for IL-10 Concentration: individual replicates; for IL-10 Concentration (pg/ml), Mean: mean of replicates; for LPS-induced IL-10 (in words): at as low as 5 μM, LPS 5 ug/mL 24 hrs
Method: Human PBMCs were pretreated with YY-101, YDE-011, YDE-043 or reference compound; Xiidra® at various concentration (ranging from […] to 500 nM) for 2 h before stimulation. An equal volume of 0.5% DMSO was used as a vehicle control. Then, the cells were treated with LPS at 5 ug/ml, which was selected based on the pilot study. The supernatants from treated cells were harvested at 24 h and placed in a 96 well for Luminex cytokine & chemokine profiling using a Luminex 200 multiplex assay (Luminex; R&D system, USA).
The main study arm with triplicate wells per group in a 24-well plate: • 1. Blank • 2. PBMC: 0.5% DMSO • 3. PBMC+LPS (5 ug/ml) • 4. PBMC+YY-101 500 nM • 5. PBMC+YY-101 50 nM • 6. PBMC+YY-101 5 nM • 7. PBMC+YY-101 0.5 nM • 8. PBMC+LPS (5 ug/ml)+Xiidra® 500 nM • 9. PBMC+LPS (5 ug/ml)+Xiidra® 50 nM • 10. PBMC+LPS (5 ug/ml)+Xiidra® 5 nM • 11. PBMC+LPS (5 ug/ml)+Xiidra® 0.5 nM • 12. PBMC+LPS (5 ug/ml)+Xiidra® 0.05 nM • 13. PBMC+LPS (5 ug/ml)+Xiidra® 0.005 nM • 14. PBMC+LPS (5 ug/ml)+YY-101 500 nM • 15. PBMC+LPS (5 ug/ml)+YY-101 50 nM • 16. PBMC+LPS (5 ug/ml)+YY-101 5 nM • 17. PBMC+LPS (5 ug/ml)+YY-101 0.5 nM • 18. PBMC+LPS (5 ug/ml)+YY-101 0.05 nM • 19. PBMC+LPS (5 ug/ml)+YY-101 0.005 nM • 20. PBMC+LPS (5 ug/ml)+YDE-011 500 nM • 21. PBMC+LPS (5 ug/ml)+YDE-011 50 nM • 22. PBMC+LPS (5 ug/ml)+YDE-011 5 nM • 23. PBMC+LPS (5 ug/ml)+YDE-011 0.5 nM • 24. PBMC+LPS (5 ug/ml)+YDE-011 0.05 nM • 25. PBMC+LPS (5 ug/ml)+YDE-011 0.005 nM • 26. PBMC+LPS (5 ug/ml)+YDE-043 500 nM • 27. PBMC+LPS (5 ug/ml)+YDE-043 50 nM • 28. PBMC+LPS (5 ug/ml)+YDE-043 5 nM • 29. PBMC+LPS (5 ug/ml)+YDE-043 0.5 nM • 30. PBMC+LPS (5 ug/ml)+YDE-043 0.05 nM • 31. PBMC+LPS (5 ug/ml)+YDE-043 0.005 nM
Multiplex assay was used to measure 30 cytokines and chemokines. The 1:200 diluted cell supernatant and serial dilution of the standard were dispensed into a 96 well plate at 50 ul/well. Then, the pre-mixed cocktail of antibody-coated magnetic beads was dispensed at 50 ul/well and incubated at room temperature for 2 h in a horizontal orbital microplate shaker at 800±500 rpm. The beads were washed using a magnetic device to prevent loss. The biotin-antibody was dispensed in 50 ul of each well and incubated at room temperature for 1 h in a shaker at 800±500 rpm. After washing, streptavidin-PE was added at 50 ul/well and incubated at room temperature for 30 min in a shaker under the same conditions. Finally, after washing, wash buffer (100 ul/well) was added to the plate and incubated in a shaker for 2 min. The Luminex™ 200 setting were set according to the manufacturer's protocol. The data was calculated with a standard five-parameter logistic nonlinear regression analysis of the data (xPonent software 4.2, USA). Results were presented as concentration (ng/ml or pg/ml).

[1] = PBMC + LPS(5 ug/ml) + test article 0.005 nM
[2] = PBMC + LPS(5 ug/ml) + test article 0.05 nM
[3] = PBMC + LPS(5 ug/ml) + test article 0.5 nM
[4] = PBMC + LPS(5 ug/ml) + test article 5 nM
[5] = PBMC + LPS(5 ug/ml) + test article 50 nM
[6] = PBMC + LPS(5 ug/ml) + test article 500 nM

SMILES	IL-10 Concentration [1]	IL-10 Concentration (pg/ml), Mean [1] [pg/mL]	IL-10 Concentration [2]	IL-10 Concentration (pg/ml), Mean [2] [pg/mL]	IL-10 Concentration [3]	IL-10 Concentration (pg/ml), Mean [3] [pg/mL]	IL-10 Concentration [4]	IL-10 Concentration (pg/ml), Mean [4] [pg/mL]	IL-10 Concentration [5]	IL-10 Concentration (pg/ml), Mean [5] [pg/mL]	IL-10 Concentration [6]	IL-10 Concentration (pg/ml), Mean [6] [pg/mL]	IL-10 Concentration (PBMC + test article 0.5 nM, no LPS, dilution 200) [pg/mL]	IL-10 Concentration (PBMC + test article 5 nM, no LPS, dilution 200) [pg/mL]	IL-10 Concentration (PBMC + test article 0.05 uM, no LPS, dilution 200) [pg/mL]	IL-10 Concentration (PBMC + test article 50 nM, no LPS, dilution 200) [pg/mL]	IL-10 Concentration (PBMC + test article 500 nM, no LPS, dilution 200) [pg/mL]	LPS-induced IL-10 (in words)
CC(C)C[C@H](NC(=O)CNC(=O)[C@H](CC(=O)O)NC(=O)[C@H](CCC(N)=O)NC(=O)CNC(=O)[C@@H]1C[C@@H](O)CN1)C(=O)N[C@@H](C)C(=O)NCC(=O)N1CCC[C@H]1C(=O)N[C@@H](CCCCN)C(=O)O [YY-101] (H-[Hyp]GQDGLAGPK-OH; N-terminus and C-terminus assumed)	832.3 pg/mL and 677.1 pg/mL and 780.9 pg/mL	763.4	806.6 pg/mL and 1121.8 pg/mL and 883.3 pg/mL	937.2	870.5 pg/mL and 703.2 pg/mL and 716.2 pg/mL	763.3	857.8 pg/mL and 934.0 pg/mL and 1009.5 pg/mL	933.8	651.0 pg/mL and 845.0 pg/mL and 793.8 pg/mL	763.3	832.3 pg/mL and 883.3 pg/mL and 755.1 pg/mL	823.5	<2.59	<2.59	<2.59	<2.59	<2.59	significantly reduced
CC(C)C[C@H](NC(=O)[C@H](CCC(N)=O)NC(=O)CNC(=O)[C@@H]1C[C@@H](O)CN1)C(=O)NCC(=O)O [YDE-043] (H-[Hyp]GQLG-OH; N-terminus and C-terminus assumed)	651.0 pg/mL and 806.6 pg/mL and 1134.2 pg/mL	863.9	436.9 pg/mL and 518.2 pg/mL and 381.9 pg/mL	445.7	436.9 pg/mL and 491.3 pg/mL and 624.7 pg/mL	517.6	545.0 pg/mL and 637.8 pg/mL and 558.4 pg/mL	580.4	571.7 pg/mL and 598.2 pg/mL and 518.2 pg/mL	562.7	464.2 pg/mL and 545.0 pg/mL and 436.9 pg/mL	482.0	–	–	–	–	–	significantly reduced
CC(C)C[C@H](NC(=O)CNC(=O)[C@H](CC(C)C)NC(=O)[C@H](CCC(N)=O)NC(=O)CNC(=O)[C@@H]1C[C@@H](O)CN1)C(=O)N[C@@H](C)C(=O)NCC(=O)N1CCC[C@H]1C(=O)N[C@@H](CCCCN)C(=O)O [YDE-011] (H-[Hyp]GQLGLAGPK-OH)	624.7 pg/mL and 409.5 pg/mL and 531.7 pg/mL	521.9	729.2 pg/mL and 611.5 pg/mL and 651.0 pg/mL	663.9	409.5 pg/ml (2×) and 297.6 pg/ml	372.2	181.1 pg/mL and 210.8 pg/mL and 381.9 pg/mL	257.9	518.2 pg/mL and 845.0 pg/mL and <2.59 pg/mL	681.6	883.3 pg/mL and <2.59 pg/mL and 225.5 pg/mL	554.4	–	–	–	–	–	significantly reduced
